# “And” between values parts separate entries of the source, which are not always exact repeats. Identical values can stand only once.
# Assays:
# 13 clinical VZV strains = settings: mean of 13 clinical VZV strains, in vitro; cited from earlier work
# [1] = system: 23 clinical HSV-1 strains; settings: mean of 23 clinical HSV-1 strains, in vitro; cited from earlier work
# [2] = photo-stabilization test of cream, UV-lamp irradiation; format: physicochemical; settings: 2 hours UV-lamp
# Description: Studies of photo-stabilization were conducted encapsulating the active ingredient in cyclodextrin-complexes (e.g. α-, β-, γ-cyclodextrin-complexes) or adding different stabilizers. Known photo-stabilizers like anti-oxidants (e.g. propylgallate, alfa-liponic acid), chemical UV-filters (e.g. octyl triazone) and pigments (titanium dioxide, zinc oxid, iron oxid yellow) were used. The efficiency of photo-stabilization was tested by determination of the content of brivudine after 2 hours of irradiation with UV-lamp (dose of 1 MED [Minimal […] dose, 24.8 Wh/m^2, UVA-light]. UVA-light was applied directly to the cream without primary packaging The higher the content of unchanged brivudine after irradiation, the better the photo-stability. […] The pigment iron oxide yellow at a concentration 20% w/w also gave about 85% brivudine content.
# [3] = photodegradation according to ICH guideline CPMP/ICH/279/95; format: physicochemical; settings: unpacked samples without stabilizer, 9.6 hours at 49.5 W/m^2 (dose 475 Wh/m^2)
# Source text: The degradation of brivudine was investigated according to the ICH (International Conference on Harmonization) guideline CPMP/ICH/279/95. […] The brivudine content decreases from about 100% to about 70% after irradiation. At the same time the samples show an increase of known and unknown impurities of about 30%.
# [4] = system: 20 clinical isolates (HSV-1); settings: two similar assays, one value per assay; cited from earlier work
Structure (SMILES),mean IC50 in 13 clinical VZV strains (13 clinical VZV strains) [µg/mL],mean IC50 in a panel of 23 clinical HSV-1 strains [1] [µg/mL],"brivudine content after irradiation ([2]; iron oxide yellow 20% w/w, 1 MED)","brivudine final content after irradiation ([2]; titanium dioxide 20% w/w, 1 MED)","brivudine content after irradiation, % of the initial concentration ([2]; without photo-stabilizer, 5% w/w brivudine cream, 1 MED (24.8 Wh/m^2, UVA))",increase of known and unknown impurities [3],brivudine content after irradiation ([3]; from about 100%),mean IC50 in a panel of 20 clinical isolates [4]
Nc1nc2c(ncn2COCCO)c(=O)[nH]1 [acyclovir],0.2,0.92,,,,,,
"O=c1[nH]c(=O)n([C@H]2C[C@H](O)[C@@H](CO)O2)cc1/C=C/Br [brivudine, (E)-5-(2-bromovinyl)-2′-deoxyuridine]",0.001,0.52,about 85%,about 85%,about 40%,about 30%,about 70%,
Nc1nc2c(ncn2CCC(CO)CO)c(=O)[nH]1 [penciclovir],0.91,,,,,,,0.6 µg/mL and 0.8 µg/mL
